According to ChEMBL document CHEMBL1201862, “PubChem BioAssay data set” (2004):
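Each compound was tested at five concentrations against cells in 96-well plates for 48 hours. GI50 = concentration required for 50% inhibition of growth.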 Activity calls are given as the source filed them. Rule as the data show it: active = GI50 up to about 1.1 µM and inactive = higher.

Legend:
Test in all cases: NCI anticancer screen, dose series, 48 h
DU-145 = system: DU-145
Hs-578T = system: Hs-578T
786-0 = system: 786-0
SW-620 = system: SW-620
EKVX = system: EKVX
SR = system: SR
KM12 = system: KM12
HT-29 = system: HT-29
HCT-15 = system: HCT-15
SK-OV-3 = system: SK-OV-3
SK-MEL-5 = system: SK-MEL-5
RXF 393 = system: RXF 393
OVCAR-4 = system: OVCAR-4
CCRF-CEM = system: CCRF-CEM
SK-MEL-28 = system: SK-MEL-28
M14 = system: M14
SF-268 = system: SF-268
MDA-N = system: MDA-N
SF-295 = system: SF-295
MDA-MB-435 = system: MDA-MB-435
HCC 2998 = system: HCC 2998
COLO 205 = system: COLO 205
RPMI-8226 = system: RPMI-8226
MCF7 = system: MCF7
Malme-3M = system: Malme-3M
BT-549 = system: BT-549
ACHN = system: ACHN
SNB-19 = system: SNB-19
SNB-75 = system: SNB-75
MOLT-4 = system: MOLT-4
NCI/ADR-RES = system: NCI/ADR-RES
CAKI-1 = system: CAKI-1
NCI-H23 = system: NCI-H23
K562 = system: K562
SF-539 = system: SF-539
HL-60 = system: HL-60
PC-3 = system: PC-3
SN12C = system: SN12C
TK-10 = system: TK-10
A549 = system: A549
NCI-H522 = system: NCI-H522
U-251 = system: U-251
UACC-62 = system: UACC-62
HCT-116 = system: HCT-116
IGROV-1 = system: IGROV-1
HOP-62 = system: HOP-62
OVCAR-8 = system: OVCAR-8
HOP-92 = system: HOP-92
MDA-MB-231 = system: MDA-MB-231
UACC-257 = system: UACC-257
T47D = system: T47D
LOX IMVI = system: LOX IMVI
OVCAR-3 = system: OVCAR-3
NCI-H226 = system: NCI-H226
NCI-H460 = system: NCI-H460
UO-31 = system: UO-31
OVCAR-5 = system: OVCAR-5
SK-MEL-2 = system: SK-MEL-2

COC1(C)/C=N/CC(C)(C)NC(=O)C(C)(OC)/C=N/CC(C)(C)NC1=O (configuration not stated)
GI50 (DU-145): > 10 µM (inactive)
GI50 (Hs-578T): > 10 µM (inactive)
GI50 (786-0): > 10 µM (inactive)
GI50 (SW-620): > 10 µM (inactive)
GI50 (EKVX): > 10 µM (inactive)
GI50 (SR): > 10 µM (inactive)
GI50 (KM12): > 10 µM (inactive)
GI50 (HT-29): > 10 µM (inactive)
GI50 (HCT-15): > 10 µM
GI50 (SK-OV-3): > 10 µM (inactive)
GI50 (SK-MEL-5): > 10 µM (inactive)
GI50 (RXF 393): > 10 µM (inactive)
GI50 (OVCAR-4): > 10 µM (inactive)
GI50 (CCRF-CEM): > 10 µM (inactive)
GI50 (SK-MEL-28): > 10 µM (inactive)
GI50 (M14): > 10 µM (inactive)
GI50 (SF-268): > 10 µM (inactive)
GI50 (MDA-N): > 10 µM (inactive)
GI50 (SF-295): > 10 µM (inactive)
GI50 (MDA-MB-435): > 10 µM (inactive)
GI50 (HCC 2998): > 10 µM (inactive)
GI50 (COLO 205): > 10 µM (inactive)
GI50 (RPMI-8226): > 10 µM (inactive)
GI50 (MCF7): > 10 µM (inactive)
GI50 (Malme-3M): > 10 µM (inactive)
GI50 (BT-549): > 10 µM (inactive)
GI50 (ACHN): > 10 µM (inactive)
GI50 (SNB-19): > 10 µM (inactive)
GI50 (SNB-75): > 10 µM (inactive)
GI50 (MOLT-4): > 10 µM (inactive)
GI50 (NCI/ADR-RES): > 10 µM (inactive)
GI50 (CAKI-1): > 10 µM (inactive)
GI50 (NCI-H23): > 10 µM (inactive)
GI50 (K562): > 10 µM (inactive)
GI50 (SF-539): > 10 µM (inactive)
GI50 (HL-60): > 10 µM (inactive)
GI50 (PC-3): > 10 µM (inactive)
GI50 (SN12C): > 10 µM (inactive)
GI50 (TK-10): > 10 µM (inactive)
GI50 (A549): > 10 µM (inactive)
GI50 (NCI-H522): 3.53 µM (inactive)
GI50 (U-251): > 10 µM (inactive)
GI50 (UACC-62): > 10 µM (inactive)
GI50 (HCT-116): > 10 µM (inactive)
GI50 (IGROV-1): > 10 µM (inactive)
GI50 (HOP-62): > 10 µM (inactive)
GI50 (OVCAR-8): > 10 µM (inactive)
GI50 (HOP-92): > 10 µM (inactive)
GI50 (MDA-MB-231): > 10 µM (inactive)
GI50 (UACC-257): > 10 µM (inactive)
GI50 (T47D): > 10 µM (inactive)

COP(=O)(C(/C=C/c1ccccc1)OC(C)=O)[C@@H]1CCCC[C@H]1N(CC(C)(C)C)C(C)=O (some centres not stated)
GI50 (DU-145): 15 µM (inactive)
GI50 (Hs-578T): 12.8 µM (inactive)
GI50 (786-0): 17.3 µM (inactive)
GI50 (SW-620): 16.7 µM (inactive)
GI50 (EKVX): 20.7 µM (inactive)
GI50 (SR): 15 µM (inactive)
GI50 (KM12): 26.2 µM (inactive)
GI50 (HT-29): 10.2 µM (inactive)
GI50 (HCT-15): 15.9 µM
GI50 (LOX IMVI): 15.8 µM (inactive)
GI50 (SK-OV-3): 23.1 µM (inactive)
GI50 (SK-MEL-5): 14 µM (inactive)
GI50 (RXF 393): 7.29 µM (inactive)
GI50 (OVCAR-3): 14.5 µM (inactive)
GI50 (OVCAR-4): 5.62 µM (inactive)
GI50 (NCI-H226): 12 µM (inactive)
GI50 (CCRF-CEM): 14.5 µM (inactive)
GI50 (SK-MEL-28): 20.4 µM (inactive)
GI50 (M14): 14.4 µM (inactive)
GI50 (SF-268): 16.6 µM (inactive)
GI50 (MDA-N): 15.6 µM (inactive)
GI50 (SF-295): 16.3 µM (inactive)
GI50 (MDA-MB-435): 14.5 µM (inactive)
GI50 (HCC 2998): 12.6 µM (inactive)
GI50 (COLO 205): 13.9 µM (inactive)
GI50 (NCI-H460): 13.4 µM (inactive)
GI50 (UO-31): 13.9 µM (inactive)
GI50 (MCF7): 22.5 µM (inactive)
GI50 (Malme-3M): 18.2 µM (inactive)
GI50 (BT-549): 16.8 µM (inactive)
GI50 (ACHN): 16.3 µM (inactive)
GI50 (SNB-19): 29 µM (inactive)
GI50 (SNB-75): 3.94 µM (inactive)
GI50 (OVCAR-5): 19.2 µM (inactive)
GI50 (MOLT-4): 7.93 µM (inactive)
GI50 (NCI/ADR-RES): 15.1 µM (inactive)
GI50 (CAKI-1): 28 µM (inactive)
GI50 (NCI-H23): 15.8 µM (inactive)
GI50 (K562): 22.4 µM (inactive)
GI50 (SF-539): 17.9 µM (inactive)
GI50 (HL-60): 14.6 µM (inactive)
GI50 (PC-3): 14 µM (inactive)
GI50 (SN12C): 14.8 µM (inactive)
GI50 (TK-10): 20.2 µM (inactive)
GI50 (A549): 16.8 µM (inactive)
GI50 (NCI-H522): 12.1 µM (inactive)
GI50 (U-251): 15.8 µM (inactive)
GI50 (UACC-62): 14 µM (inactive)
GI50 (HCT-116): 10.9 µM (inactive)
GI50 (IGROV-1): 10.6 µM (inactive)
GI50 (HOP-62): 18.2 µM (inactive)
GI50 (OVCAR-8): 16.8 µM (inactive)
GI50 (SK-MEL-2): 15.4 µM (inactive)
GI50 (MDA-MB-231): 14.8 µM (inactive)
GI50 (UACC-257): 14.3 µM (inactive)
GI50 (T47D): 5.87 µM (inactive)
